Data set [1] relates to IFN-a/Jak1 Tyk2. The experiment in a line: Co-stimulation assay in lysed whole blood: IFNa (JAK1/TYK2) stimulated STAT1 phosphorylation. Type of data set: cell-based. To be noted: Homo sapiens, 20 min, 100 ng/mL IFNa (with 10 ng/mL GM-CSF), pSTAT by flow cytometry. In short, it runs like this:
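Lysed human whole blood (RBC-lysed, resuspended in cRPMI) pre-incubated with compound 1 h at 37 °C, then stimulated 20 min with IFNa 100 ng/mL plus GM-CSF 10 ng/mL (final). Fixed, permeabilised, stained for pSTAT1 (PE) and pSTAT5 (AF488); flow cytometry read-out, ≥5,000–10,000 cells acquired.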

A short description of data set [2]: Hepatocyte stability. To be noted: for half-life at 1 μM: human, Table 3 of Example 15: 1 μM test compound, 0.5 million cells/mL hepatocytes, 37° C. It is filed as in vitro ADME, human. As to the method: Metabolic stability of compounds can be evaluated using human, rat, mouse, or other animal hepatocytes to predict intrinsic clearance. Human LiverPool™ 20-donor and animal cryopreserved hepatocytes were obtained from BioreclamationIVT.
Cryopreserved hepatocytes were removed from a liquid nitrogen tank and thawed in a 37° C. water bath. As soon as the cells pull away from the vial wall, they were decanted into 48 mL of warm HT medium. Cells were centrifuged for four minutes at 420 rpm (50 g). After removing the supernatant, the pellet was re-suspended in warm DMEM medium. Cell density was counted by a hemacytometer.
The assay was carried out in 96-well microtiter plates. Compound 5 was incubated for 0, 60, 120, and 180 minutes at 37° C. with hepatocytes. Reaction mixtures (50 μL) contain a final concentration of 1 μM test compound, 0.5 million cells/mL hepatocytes in the DMEM medium. At each of the time points (for example, 0, 1, 2, and 3 hours), 200 μL of quench solution (100% acetonitrile with 0.1% formic acid) with internal standard was transferred to each well. Midazolam was included as a positive control to verify assay performance. Plates were sealed and centrifuged at 4° C. for 15 minutes at 4000 rpm. The supernatant was transferred to fresh plates for LC/MS/MS analysis.
All samples were analyzed on LC/MS/MS using an AB Sciex API 4000 instrument, coupled to a Shimadzu LC-20AD LC Pump system. Analytical samples were separated using a Waters Atlantis T3 dC18 reverse phase HPLC column (20 mm×2.1 mm) at a flow rate of […]. The mobile phase consists of 0.1% formic acid in water (solvent A) and 0.1% formic acid in 100% acetonitrile (solvent B).
The extent of metabolism was calculated as the disappearance of the test compound, compared to the 0-min control reaction incubations. Initial rates are calculated for the compound concentration and used to determine t½ values and subsequently, the intrinsic clearance, CLint=(0.693)(1/t½ (min))(mL incubation/million cells).

Data set [3] in a line: Rat pharmacokinetics (PK). It is filed as in vivo. To be noted: rat, plasma, IV group and PO group, route of the Cmax not given, urea versus corresponding amide, read-out: Cmax. The protocol:
Rat PK experiments were performed with an IV group and PO group included, with 3 rats per group. The formulation was solution for IV group and either solution or suspension formulation for the oral group(s). Plasma samples were harvested with K2EDTA as anticoagulant at 0.08, 0.25, 0.5, 1, 2, 4, 8, 12 and 24 hours for the IV group and at 0.25, 0.5, 1, 2, 4, 6, 8, 12 and 24 hours for the PO group, and analyzed by fit for purpose LC-MS/MS method. Non-compartmental analysis module in Phoenix WinNonlin® (Version 8.0) was used to assess the pharmacokinetic parameters. Maximum concentration (Cmax) were taken from the observed values.

The results in this text go back to US11753411B2, “Substituted pyrazolo[1,5-a]pyrimidines as TYK2 pseudokinase ligands” (Ventyx Biosciences, Inc., priority 2019, dated 2023).

The structures appear in SMILES notation.

In data set [1], `CNc1cc(Nc2cc(F)cc3c2OCCO3)nc2c(NC(=O)N[C@@H]3C[C@@H]3F)cnn12` [Compound 5, 1-(5-((7-fluoro-2,3-dihydrobenzo[b][1,4]dioxin-5-yl)amino)-7-(methylamino)pyrazolo[1,5-a]pyrimidin-3-yl)-3-((1R,2S)-2-fluorocyclopropyl)urea] showed an IC50 of less than 1 µM. Also, in data set [2] (hepatocytes, statement in words), the “metabolic stability compared to the corresponding amide compound” value is given as “unexpected high metabolic stability”.

On to `CNc1cc(Nc2cccc3c2OCCO3)nc2c(C(=O)NC3CC3)cnn12` [drawing 290, reference compound], for which, in data set [3], the Cmax came out at 400 ng/mL. `CNC(=O)Nc1cnn2c(NC)cc(Nc3cc(C)cc(C)c3)nc12` [drawing 291]: the Cmax in data set [3] was 915 ng/mL. In data set [2], `CNc1cc(Nc2cc(F)cc3c2OCCO3)nc2c(NC(=O)N[C@@H]3C[C@@H]3F)cnn12` [drawing 293] came in with a half-life at 1 μM of more than 6 h.

`CNc1cc(Nc2cc(F)cc3c2OCCO3)nc2c(C(=O)N[C@@H]3C[C@@H]3F)cnn12` [drawing 294, reference compound] registered a half-life at 1 μM in data set [2] of less than 1.67 h. With `CNc1cc(Nc2cccc3c2OCCO3)nc2c(C(=O)N[C@@H]3C[C@@H]3F)cnn12` [reference compound], the maximum concentration (Cmax) in data set [3] came to 400 ng/mL. On the same count and under the same terms, the value for `CNc1cc(Nc2cccc3c2OCCO3)nc2c(C(=O)NC3CCC3)cnn12` [reference compound] was 1900 ng/mL; that for `CNC(=O)c1cnn2c(NC)cc(Nc3cc(C)cc(C)c3)nc12` [reference compound] was 200 ng/mL.
